# Laboratory results from the supplement of paper PMC10307832.
# Tests used:
# Assay in all cases: relative viability (nuclei count vs DMSO), 5 days (fraction); higher = more cells survive
# NCI-H1915 = system: NCI-H1915
# Summary of the method: (§1)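 Relative viability was taken as the ratio of nuclei in treated wells to nuclei in vehicle wells. Lung cancer cell lines in 1536-well plates received compounds by pin tool one day after seeding, either one drug alone or a fixed anchor-drug dose plus five library-drug doses (not always all listed) in √10 steps. Nuclei were counted on 4× images after 5 days of treatment, and values are medians of duplicate plates.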
# NCI-H23 = system: NCI-H23
# Summary of the method: as §1
# EKVX = system: EKVX
# Summary of the method: as §1
# H3255 = system: H3255
# Summary of the method: as §1
# LU99A = system: LU99A
# Summary of the method: as §1
# EMC-BAC-2 = system: EMC-BAC-2
# Summary of the method: as §1
# NCI-H441 = system: NCI-H441
# Summary of the method: as §1
# NCI-H1793 = system: NCI-H1793
# Summary of the method: as §1
# ChaGo-K-1 = system: ChaGo-K-1
# Summary of the method: as §1
# LCLC-97TM1 = system: LCLC-97TM1
# Summary of the method: as §1
# HCC-827 = system: HCC-827
# Summary of the method: as §1
# NCI-H322M = system: NCI-H322M
# Summary of the method: as §1
# LC-2-ad = system: LC-2-ad
# Summary of the method: as §1
# NCI-H1944 = system: NCI-H1944
# Summary of the method: as §1
# NCI-H460 = system: NCI-H460
# Summary of the method: as §1
# HARA = system: HARA
# Summary of the method: as §1
# NCI-H1437 = system: NCI-H1437
# Summary of the method: as §1
# HCC-15 = system: HCC-15
# Summary of the method: as §1
# PC-3 [JPC-3] = system: PC-3 [JPC-3]
# Summary of the method: as §1
# NCI-H1792 = system: NCI-H1792
# Summary of the method: as §1
# NCI-H2126 = system: NCI-H2126
# Summary of the method: as §1
# SK-LU-1 = system: SK-LU-1
# Summary of the method: as §1
structure (smiles),measurement,setting,value
Cc1cnc(-c2cnc(NCCNc3ccc(C#N)cn3)nc2-c2ccc(Cl)cc2Cl)[nH]1 + NC(=O)Nc1cc(-c2cccc(F)c2)sc1C(=O)N[C@H]1CCCNC1 [AZD7762] (partner 0.2 µM),relative viability,NCI-H1915; first compound 0.08 µM,0.692
same,relative viability,NCI-H1915; first compound 0.8 µM,0.675
same,relative viability,NCI-H1915; first compound 2.53 µM,0.644
same,relative viability,NCI-H23; first compound 0.08 µM,0.313
same,relative viability,NCI-H23; first compound 0.253 µM,0.16
same,relative viability,NCI-H23; first compound 0.8 µM,0.247
same,relative viability,NCI-H23; first compound 2.53 µM,0.256
same,relative viability,EKVX; first compound 0.08 µM,0.731
same,relative viability,EKVX; first compound 0.253 µM,0.698
same,relative viability,EKVX; first compound 0.8 µM,0.588
same,relative viability,EKVX; first compound 2.53 µM,0.655
same,relative viability,H3255; first compound 0.08 µM,0.996
same,relative viability,H3255; first compound 0.253 µM,0.887
same,relative viability,H3255; first compound 0.8 µM,0.879
same,relative viability,H3255; first compound 2.53 µM,0.888
same,relative viability,LU99A; first compound 0.08 µM,0.393
same,relative viability,LU99A; first compound 0.253 µM,0.368
same,relative viability,LU99A; first compound 0.8 µM,0.333
same,relative viability,LU99A; first compound 2.53 µM,0.389
same,relative viability,EMC-BAC-2; first compound 0.08 µM,1.24
same,relative viability,EMC-BAC-2; first compound 0.253 µM,1.21
same,relative viability,EMC-BAC-2; first compound 0.8 µM,1.04
same,relative viability,EMC-BAC-2; first compound 2.53 µM,1.01
same,relative viability,NCI-H441; first compound 0.08 µM,1.02
same,relative viability,NCI-H441; first compound 0.8 µM,0.967
same,relative viability,NCI-H441; first compound 2.53 µM,0.993
same,relative viability,NCI-H1793; first compound 0.08 µM,0.735
same,relative viability,NCI-H1793; first compound 0.253 µM,0.379
same,relative viability,NCI-H1793; first compound 0.8 µM,0.385
same,relative viability,NCI-H1793; first compound 2.53 µM,0.461
same,relative viability,ChaGo-K-1; first compound 0.08 µM,0.843
same,relative viability,ChaGo-K-1; first compound 0.253 µM,0.754
same,relative viability,ChaGo-K-1; first compound 0.8 µM,0.82
same,relative viability,ChaGo-K-1; first compound 2.53 µM,0.814
same,relative viability,LCLC-97TM1; first compound 0.08 µM,0.269
same,relative viability,LCLC-97TM1; first compound 0.253 µM,0.186
same,relative viability,LCLC-97TM1; first compound 0.8 µM,0.15
same,relative viability,LCLC-97TM1; first compound 2.53 µM,0.235
same,relative viability,HCC-827; first compound 0.08 µM,0.242
same,relative viability,HCC-827; first compound 0.253 µM,0.169
same,relative viability,HCC-827; first compound 0.8 µM,0.193
same,relative viability,HCC-827; first compound 2.53 µM,0.171
same,relative viability,NCI-H322M; first compound 0.08 µM,0.526
same,relative viability,NCI-H322M; first compound 0.253 µM,0.546
same,relative viability,NCI-H322M; first compound 0.8 µM,0.566
same,relative viability,NCI-H322M; first compound 2.53 µM,0.675
same,relative viability,LC-2-ad; first compound 0.08 µM,0.851
same,relative viability,LC-2-ad; first compound 0.8 µM,0.687
same,relative viability,LC-2-ad; first compound 2.53 µM,0.841
same,relative viability,NCI-H1944; first compound 0.08 µM,0.668
same,relative viability,NCI-H1944; first compound 0.8 µM,0.488
same,relative viability,NCI-H1944; first compound 2.53 µM,0.521
same,relative viability,NCI-H460; first compound 0.08 µM,0.579
same,relative viability,NCI-H460; first compound 0.8 µM,0.557
same,relative viability,NCI-H460; first compound 2.53 µM,0.541
same,relative viability,HARA; first compound 0.08 µM,0.297
same,relative viability,HARA; first compound 0.253 µM,0.191
same,relative viability,HARA; first compound 0.8 µM,0.37
same,relative viability,HARA; first compound 2.53 µM,1
same,relative viability,NCI-H1437; first compound 0.08 µM,1.17
same,relative viability,NCI-H1437; first compound 0.253 µM,1.06
same,relative viability,NCI-H1437; first compound 0.8 µM,1.06
same,relative viability,NCI-H1437; first compound 2.53 µM,1.01
same,relative viability,HCC-15; first compound 0.08 µM,1.17
same,relative viability,HCC-15; first compound 0.253 µM,0.968
same,relative viability,HCC-15; first compound 0.8 µM,1.2
same,relative viability,HCC-15; first compound 2.53 µM,1.13
same,relative viability,PC-3 [JPC-3]; first compound 0.08 µM,0.805
same,relative viability,PC-3 [JPC-3]; first compound 0.253 µM,0.761
same,relative viability,PC-3 [JPC-3]; first compound 0.8 µM,0.799
same,relative viability,PC-3 [JPC-3]; first compound 2.53 µM,0.725
same,relative viability,NCI-H1792; first compound 0.08 µM,0.8
same,relative viability,NCI-H1792; first compound 0.253 µM,0.611
same,relative viability,NCI-H1792; first compound 0.8 µM,0.594
same,relative viability,NCI-H1792; first compound 2.53 µM,0.446
same,relative viability,NCI-H2126; first compound 0.08 µM,1.03
same,relative viability,NCI-H2126; first compound 0.253 µM,0.939
same,relative viability,NCI-H2126; first compound 0.8 µM,0.984
same,relative viability,NCI-H2126; first compound 2.53 µM,1.02
Cc1cnc(-c2cnc(NCCNc3ccc(C#N)cn3)nc2-c2ccc(Cl)cc2Cl)[nH]1 + CC1(C)CCC(c2ccc(Cl)cc2)=C(CN2CCN(c3ccc(C(=O)NS(=O)(=O)c4ccc(N[C@H](CCN5CCOCC5)CSc5ccccc5)c(S(=O)(=O)C(F)(F)F)c4)cc3)CC2)C1 [Navitoclax] (partner 0.5 µM),relative viability,NCI-H1915; first compound 0.08 µM,0.85
same,relative viability,NCI-H1915; first compound 0.8 µM,0.704
same,relative viability,NCI-H1915; first compound 2.53 µM,0.778
same,relative viability,NCI-H23; first compound 0.08 µM,0.875
same,relative viability,NCI-H23; first compound 0.253 µM,0.87
same,relative viability,NCI-H23; first compound 0.8 µM,0.63
same,relative viability,NCI-H23; first compound 2.53 µM,0.785
same,relative viability,SK-LU-1; first compound 0.08 µM,0.976
same,relative viability,SK-LU-1; first compound 0.253 µM,0.807
same,relative viability,SK-LU-1; first compound 0.8 µM,1.2
same,relative viability,SK-LU-1; first compound 2.53 µM,0.692
same,relative viability,EKVX; first compound 0.08 µM,0.715
same,relative viability,EKVX; first compound 0.253 µM,0.844
same,relative viability,EKVX; first compound 0.8 µM,0.905
same,relative viability,EKVX; first compound 2.53 µM,0.814
same,relative viability,H3255; first compound 0.08 µM,0.413
same,relative viability,H3255; first compound 0.253 µM,0.424
same,relative viability,H3255; first compound 0.8 µM,0.508
same,relative viability,H3255; first compound 2.53 µM,0.361
same,relative viability,LU99A; first compound 0.08 µM,0.858
same,relative viability,LU99A; first compound 0.253 µM,0.808
same,relative viability,LU99A; first compound 0.8 µM,0.794
same,relative viability,LU99A; first compound 2.53 µM,0.823
same,relative viability,EMC-BAC-2; first compound 0.08 µM,1.17
same,relative viability,EMC-BAC-2; first compound 0.253 µM,1.05
same,relative viability,EMC-BAC-2; first compound 0.8 µM,1.18
same,relative viability,EMC-BAC-2; first compound 2.53 µM,1.18
same,relative viability,NCI-H441; first compound 0.08 µM,0.719
same,relative viability,NCI-H441; first compound 0.253 µM,0.535
same,relative viability,NCI-H441; first compound 0.8 µM,0.745
same,relative viability,NCI-H441; first compound 2.53 µM,0.57
same,relative viability,NCI-H1793; first compound 0.08 µM,0.399
same,relative viability,NCI-H1793; first compound 0.253 µM,0.446
same,relative viability,NCI-H1793; first compound 0.8 µM,0.283
same,relative viability,NCI-H1793; first compound 2.53 µM,0.354
same,relative viability,ChaGo-K-1; first compound 0.08 µM,0.791
same,relative viability,ChaGo-K-1; first compound 0.253 µM,0.863
same,relative viability,ChaGo-K-1; first compound 0.8 µM,0.516
same,relative viability,ChaGo-K-1; first compound 2.53 µM,0.856
same,relative viability,LCLC-97TM1; first compound 0.08 µM,0.41
same,relative viability,LCLC-97TM1; first compound 0.253 µM,0.377
same,relative viability,LCLC-97TM1; first compound 0.8 µM,0.42
same,relative viability,LCLC-97TM1; first compound 2.53 µM,0.4
same,relative viability,HCC-827; first compound 0.08 µM,1.04
same,relative viability,HCC-827; first compound 0.8 µM,1.05
same,relative viability,HCC-827; first compound 2.53 µM,1.05
same,relative viability,NCI-H322M; first compound 0.08 µM,1.3
same,relative viability,NCI-H322M; first compound 0.253 µM,1.25
same,relative viability,NCI-H322M; first compound 0.8 µM,1.14
same,relative viability,NCI-H322M; first compound 2.53 µM,1.2
same,relative viability,LC-2-ad; first compound 0.08 µM,0.53
same,relative viability,LC-2-ad; first compound 0.8 µM,0.452
same,relative viability,LC-2-ad; first compound 2.53 µM,0.5
same,relative viability,NCI-H1944; first compound 0.08 µM,1.03
same,relative viability,NCI-H1944; first compound 0.8 µM,0.992
same,relative viability,NCI-H1944; first compound 2.53 µM,1
same,relative viability,NCI-H460; first compound 0.08 µM,1.16
same,relative viability,NCI-H460; first compound 0.253 µM,1.12
same,relative viability,NCI-H460; first compound 0.8 µM,1.17
same,relative viability,NCI-H460; first compound 2.53 µM,1.04
same,relative viability,HARA; first compound 0.08 µM,1.13
same,relative viability,HARA; first compound 0.253 µM,1.12
same,relative viability,HARA; first compound 0.8 µM,1.16
same,relative viability,HARA; first compound 2.53 µM,1.19
same,relative viability,NCI-H1437; first compound 0.08 µM,1.1
same,relative viability,NCI-H1437; first compound 0.253 µM,1.05
same,relative viability,NCI-H1437; first compound 0.8 µM,1.12
same,relative viability,NCI-H1437; first compound 2.53 µM,1.12
same,relative viability,HCC-15; first compound 0.08 µM,0.737
same,relative viability,HCC-15; first compound 0.253 µM,0.622
same,relative viability,HCC-15; first compound 0.8 µM,0.65
same,relative viability,HCC-15; first compound 2.53 µM,0.578
same,relative viability,PC-3 [JPC-3]; first compound 0.08 µM,0.81
same,relative viability,PC-3 [JPC-3]; first compound 0.253 µM,0.71
same,relative viability,PC-3 [JPC-3]; first compound 0.8 µM,0.809
same,relative viability,PC-3 [JPC-3]; first compound 2.53 µM,0.729
same,relative viability,NCI-H1792; first compound 0.08 µM,0.624
same,relative viability,NCI-H1792; first compound 0.253 µM,0.577
same,relative viability,NCI-H1792; first compound 0.8 µM,0.601
same,relative viability,NCI-H1792; first compound 2.53 µM,0.568
same,relative viability,NCI-H2126; first compound 0.08 µM,0.881
same,relative viability,NCI-H2126; first compound 0.253 µM,0.897
same,relative viability,NCI-H2126; first compound 0.8 µM,0.878
same,relative viability,NCI-H2126; first compound 2.53 µM,0.835
